Several values for one entry are separate records, joined by “and”; a condition that tells them apart may be missing. Equal values may be shown once.
Legend:
β-catenin = assay: Western blot of β-catenin in adipose tissues of internal organs; assay type: in vivo, mice; conditions: PD vs HFD
Description: (§1) A predetermined amount of visceral fat or hepatic tissues was homogenized with liquid nitrogen and a lysis buffer solution in a mortar and centrifuged at 13,000×g and 4° C. for 20 minutes, and the middle layer was obtained to quantify proteins according to the Bradford method. 50 μg of the protein was subject to electrophoresis on an SDS polyacrylamide gel, was subject to electroblotting on a PVDF hyper film, and was reacted with the corresponding antibody, β-catenin, phospho-AMPK (AMP-activated protein kinase), AMPK, GAPDH (Cell-Signaling Technology, U.S.), respectively. The signal of each protein was visualized by a chemiluminescent detection system (Amersham, U.K.), and the thickness of bands was quantified by using the Quantity One Analysis Software (Bio-Rad Laboratories, U.S.).

[1] = test system: genes related to lipogenesis; assay: RT-PCR gene expression in hepatic tissues; assay type: in vivo, mice; conditions: PD vs HFD
Description: (§2) 1 mL of TRIzol solution was added per 0.1 g of adipose tissues of internal organs and hepatic tissues, and tissues were crushed and centrifuged at 4° C. and 12,000×g for 10 minutes. The supernatant was placed in a new tube, and 200 μL of chloroform was added followed by stirring. After repeating this procedure twice, the supernatant was placed in a new tube, and isopropanol and the supernatant were added at a ratio of 1:1. After strongly shaking for 10 times, the mixture was placed at room temperature for 10 minutes, centrifuged at 4° C. and 12,000×g for 10 minutes to remove the supernatant, and 1 mL of 70% ethanol was added to the precipitate to be centrifuged at 4° C. and 7,500×g for 5 minutes. After removing ethanol, the tube containing RNA precipitate was dried at room temperature for 5 minutes, and RNA pellet was dissolved using nuclease free water. By a using UV/VIS spectrophotometer (Beckman coulter, DU730, U.S.), the concentrations of RNA samples extracted at wavelengths of 260 nm and 280 nm were measured, and by carrying out agarose gel electrophoresis, the integrity of RNA samples was determined.
(§3) For RNA samples extracted from adipose tissues of internal organs and hepatic tissues, oligo dT primers and superscript reverse transcriptase (GIBCO BRL, U.S.) were used to carry out reverse transcription to synthesize cDNA. By using the cDNA obtained by reverse transcription as a […] and using a 5′ and 3′ flanking sequence of the cDNA of the gene to be amplified as a primer, PCR was carried out, and at this time, the sequences of the used primers are shown in Table 2. 1 μL of the amplified PCR product was subject to electrophoresis on a 1% agarose gel to check for DNA bands.

Dietary Obese Mice [2] = assay: Body weight gain, diet intake and food efficiency ratio in high fat diet-fed mice; assay type: in vivo; conditions: 10 weeks
Description: (§4) As a control drug, metformin (Met) or sibutramine (Sibu) which is an anti-obesity drug was added at a concentration of about 0.01% to HFD and used (Table 1). For a normal diet (chow) group, a commercially available rodent chow was fed. Pinocarveol, metformin, and sibutramine were all purchased from Sigma-Aldrich Company (U.S.).
(§5) 5-week-old male C57BL/6J mice (Orient, Korea) were adjusted to a laboratory condition with solid feed for one week and randomly assigned to a high fat diet control group and experimental groups according to the randomized block method, followed by raising for ten weeks. Diet was supplied with water between 10 and 11 a.m. every day, intake amounts of diet was measured every day, and weight was measured every week. In order to prevent sudden weight changes due to feed intake, feed containers were removed, and weight was measured after 2 hours. Experimental animals were fasted for 12 hours or longer and anaesthetized by diethyl ether, and blood, liver, adipose tissues of internal organs (epididymal fat, fat around the kidney, mesenteric fat, and retroperitoneal fat) were collected, washed with 0.1M phosphate buffer solution (pH 7.4), and measured for weight. Blood collected from abdominal aorta was centrifuged at 1,000×g for 15 minutes to separate blood plasma.

[3] = test system: IL-6, TNFα, MCP1, and leptin; assay: Inflammatory cytokine concentration in blood (ELISA); assay type: in vivo, mice; conditions: PD vs HFD group, 10 weeks
Description: as §4
The concentrations of plasma IL-6, TNFα, MCP1, and leptin were measured by the ELISA method using the Milliplex map kit (Millipore Corporation, U.S.).

Dietary Obese Mice [4] = assay: Liver function indexes (ALT, AST activity) in blood plasma; assay type: in vivo; conditions: PD vs HFD group, 10 weeks
Description: as §4, §5

Dietary Obese Mice [5] = assay: Oral glucose tolerance test; assay type: in vivo; conditions: PD vs HFD group, at 8 weeks, d-glucose 2 g/kg oral
Description: An obesity inducing diet used in the present invention included a high fat control diet (HFD: 40% fat calorie, 17 g lard, and 3% corn oil/100 g diet), and a pinocarveol-supplemented high fat diet (PD) supplemented with pinocarveol (80,613, Sigma-Aldrich Company, CAS Number: 547-61-5, (1S,3R,5S)-6,6-dimethyl-2-methylenebicyclo[3,1,1]heptan-3-ol) has the same composition as HFD, but about 0.2% of pinocarveol was added. As a control drug, metformin (Met) or sibutramine (Sibu) which is an anti-obesity drug was added at a concentration of about 0.01% to HFD and used (Table 1). For a normal diet (chow) group, a commercially available rodent chow was fed. Pinocarveol, metformin, and sibutramine were all purchased from Sigma-Aldrich Company (U.S.).
At 8 weeks of experimental raising, experimental animals were fasted for 16 hours and orally administered with d-glucose corresponding to 2 g/kg body weight, and blood was collected from the tail vein of mice at time points of 15 minutes, 30 minutes, 60 minutes, and 120 minutes. The glucose concentration of collected blood was measured by using a script-operation blood glucose sensor (ONETOUCH Ultra, Inverness Medical Ltd., U.K.).

AMPK = assay: Western blot of p-AMPK/AMPK in hepatic tissues; assay type: in vivo, mice; conditions: PD vs HFD
Description: as §1

Dietary Obese Mice [6] = assay: Visceral fat weight in high fat diet-fed mice; assay type: in vivo; conditions: 10 weeks
Description: as §4, §5
After feeding the experimental diets for 10 weeks, each of epididymal fat, fat around the kidney, mesenteric fat, and retroperitoneal fat, which compose visceral fat, was extracted to measure the weight thereof.

Dietary Obese Mice [7] = assay: Plasma lipid concentration (commercial measurement kit); assay type: in vivo; conditions: 10 weeks
Description: as §4, §5
In order to evaluate the concentrations of plasma cholesterol, neutral fat, and free fatty acids of experimental animals raised for ten weeks, a commercially available measurement kit (Bio Clinical System, Korea) was used to perform measurement by repeating 2 measurements, respectively.

Dietary Obese Mice [8] = assay: Fasting blood glucose and insulin concentration; assay type: in vivo; conditions: PD vs HFD group, 10 weeks
Description: as §4
Meanwhile, the glucose concentration of the blood plasma obtained during fasting which was collected from mice raised for 10 weeks was measured by using a biochemical automatic analyzer (Express Plus, Chiron Diagnostics Co., U.S.), and kit reagents for analysis were purchased from Bio-Clinical System (Korea).
The insulin concentration of blood plasma obtained during fasting was measured by using a mouse insulin ELISA kit (Millipore Corporation, U.S.).

[9] = cited from earlier work
Dietary Obese Mice [10] = assay: Liver weight and lipid concentration of hepatic tissue (Folch extraction); assay type: in vivo; conditions: PD vs HFD group, 10 weeks
Description: as §4, §5
Lipid components of hepatic tissues were collected as follows according to the method by Folch, et al. (Folch J, Lees M, Sloane Stanley G H. A simple method for the isolation and purification of total lipids from animal tissues. J Bio Chem. 1957; 226: 497-509). 1 mL of distilled water was applied to a hepatic tissue (0.25 g) and homogenized by using a Polytron homogenizer (IKA-WERKE GmbH & Co., Ultra-Turrax, Staufen, Germany). 5 mL of a chloroform:methanol solution (2:1, v/v) was added to the homogeneous solution, mixed well and centrifuged at 1,000×g for 10 minutes to separate a lower phase. 2 mL of a chloroform:methanol solution (2:1, v/v) was added to an upper phase again, and after repeating the same procedure, lipid components of the liver were completely separated. 3 mL of a chloroform:methanol:0.05% CaCl2) (3:48:47, v/v/v) solution was added to the lower phase thus obtained, mixed for 1 minute, and centrifuged at 1,000×g for 10 minutes. After obtaining the final lower phase and completely drying with nitrogen gas, the dried lipids were dissolved in 1 mL of methanol to use for lipid component analysis.
The concentrations of neutral fat, cholesterol, and free fatty acids of the lipid extracts of hepatic tissues were measured by using the same commercially available measurement kit (Bio Clinical System, Korea) as previously used for the analysis of plasma lipid concentration.

[11] = test system: genes related to thermogenesis and adipogenesis; assay: RT-PCR gene expression in adipose tissues of internal organs; assay type: in vivo, mice; conditions: PD vs HFD
Description: as §2, §3

## C=C1[C@H](O)C[C@@H]2C[C@H]1C2(C)C [pinocarveol, (1S,3R,5S)-6,6-dimethyl-2-methylenebicyclo[3,1,1]heptan-3-ol]
β-catenin
  protein expression amount of β-catenin: significant increase
β-catenin; listed as PD
  protein expression amount of β-catenin: significantly increased
[1]
  ACC gene expression: significantly decreased
  FAS gene expression: significantly decreased
  LPL gene expression: significantly decreased
  LXRα gene expression: significantly decreased
  SREBP gene expression: significantly decreased
[1]; listed as PD
  ACC gene expression: significantly decreased again
  FAS gene expression: significantly decreased again
  LPL gene expression: significantly decreased again
  LXRα gene expression: significantly decreased again
  SREBP gene expression: significantly decreased again
Dietary Obese Mice [2]; PD (about 0.2% pinocarveol in HFD) vs HFD group
  decrease in cumulative body weight gain: 32%
Dietary Obese Mice [2]; PD vs HFD group
  decrease in food efficiency ratio (cumulative body weight gain / total diet intake): 32%
[3]
  decrease in plasma IL-6 concentration: 70%
  decrease in plasma MCP1 concentration: 35%
  decrease in plasma TNFα concentration: 28%
  decrease in plasma leptin concentration: 40%
Dietary Obese Mice [4]
  decrease in alanine aminotransferase (ALT) activity in blood plasma: 44% and 52%
  decrease in aspartate aminotransferase (AST) activity in blood plasma: 32% and 34%
Dietary Obese Mice [5]
  blood glucose concentrations over time after sugar intake (OGTT): decrease
  reduction of area under the curve (AUC) of the glucose concentration (OGTT): 20%
AMPK
  activation (p-AMPK/AMPK ratio) of AMPK: significant increase
AMPK; listed as PD
  activation (p-AMPK/AMPK ratio) of AMPK: significantly increased
Dietary Obese Mice [6]; PD vs HFD group
  decrease in total visceral fat weight: 32%
  weights of epididymal fat, fat around the kidney, mesenteric fat, and retroperitoneal fat: significantly reduced
Dietary Obese Mice [6]; vs sibutramine and metformin diets
  effect of reducing body weight and visceral fat amount compared with control drugs: as much excellent effect of reducing body weight and visceral fat amount as commercially available anti-obesity drugs (sibutramine) and diabetes treatment drugs (metformin)
Dietary Obese Mice [7]; PD vs HFD group
  decrease in plasma free fatty acid concentration: 39%
  decrease in plasma neutral fat concentration: 27%
  decrease in plasma total cholesterol concentration: 16%
Dietary Obese Mice [7]; between the experimental groups
  HDL-cholesterol concentration in blood: did not show any significant difference
Dietary Obese Mice [8]
  decrease in fasting blood glucose concentration: 21%
  decrease in fasting blood insulin concentration: 50%
[9]; oil and ethanol
  solubility in oil and ethanol: dissolve in oil and ethanol
[9]; water
  solubility in water: does not dissolve
Dietary Obese Mice [10]
  decrease in absolute liver weight: 30%
  decrease in free fatty acid concentration of hepatic tissue: 65%
  decrease in neutral fat concentration of hepatic tissue: 33%
  decrease in total cholesterol concentration of hepatic tissue: 31%
[11]
  C/EBPα gene expression: significantly decreased
  CD36 gene expression: significantly decreased
  FAS gene expression: significantly decreased
  PGC-1α gene expression: significantly increased
  PPARγ2 gene expression: significantly decreased
  UCP1 gene expression: significantly increased
  UCP3 gene expression: significantly increased
  leptin gene expression: significantly decreased
[11]; listed as PD
  C/EBPα gene expression: significantly decreased again
  CD36 gene expression: significantly decreased again
  FAS gene expression: significantly decreased again
  PGC-1α gene expression: significantly increased again
  PPARγ2 gene expression: significantly decreased again
  UCP1 gene expression: significantly increased again
  UCP3 gene expression: significantly increased again
  leptin gene expression: significantly decreased again

Reference: patent US11096903B2, “Use of pinocarveol” (INDUSTRY-ACADEMIC COOPERATION FOUNDATION, YONSEI UNIVERSITY, priority 2015, dated 2021)
